# Earlier results as cited in patent publication US20080112918A1, “Method for treating gout and binding uric acid” (priority 2001, published 2008).
# Settings: administered orally; treatment of gouty arthritis
smiles,measurement,value
COc1cc2c(c(OC)c1OC)-c1ccc(OC)c(=O)cc1[C@@H](NC(C)=O)CC2 [colchicine],people who cannot tolerate the drug because of side effects,80%
